Test results taken from publication PMC9133036 (Nature Communications, 2022).
Substitutions are numbered along the chain they refer to. Several values for one entry are separate records, joined by “and”; a condition that tells them apart may be missing. Equal values may be shown once. Entries after “also recorded” stand apart in the source; their conditions may differ.

Assays:
Format in all cases: cell-based
OX2R N324A = biological target: T1, OX2R N324A (Homo sapiens, UniProt O43614, N324A); assay: IP accumulation assay, OX2R N324A;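 on % IP accumulation: 100% equals the maximal response of wild-type OX2R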
T1 construct: FLAG; expressed in transfected cells; host or cells: HEK293
T1 sequence (O43614 1-444 N324A): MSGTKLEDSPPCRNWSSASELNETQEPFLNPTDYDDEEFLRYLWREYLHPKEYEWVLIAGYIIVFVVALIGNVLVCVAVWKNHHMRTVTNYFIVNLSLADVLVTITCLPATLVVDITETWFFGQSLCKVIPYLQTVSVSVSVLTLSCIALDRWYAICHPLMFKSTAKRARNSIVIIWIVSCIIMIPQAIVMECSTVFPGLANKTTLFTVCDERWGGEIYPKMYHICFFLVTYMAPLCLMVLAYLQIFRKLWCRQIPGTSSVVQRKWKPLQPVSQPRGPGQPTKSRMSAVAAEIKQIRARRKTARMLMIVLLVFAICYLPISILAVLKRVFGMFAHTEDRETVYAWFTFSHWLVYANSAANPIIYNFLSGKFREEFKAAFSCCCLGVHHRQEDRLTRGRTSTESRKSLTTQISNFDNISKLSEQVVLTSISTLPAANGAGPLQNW
Source text: (§1) The IP assay was adapted from a prior precedent. HEK293 cells were maintained in DMEM-high glucose (Millipore Sigma) supplemented with 5% fetal bovine serum (Corning) and penicillin-streptomycin (Millipore Sigma). Receptor constructs used were the full-length wild-type (or mutant) human OX1R and OX2R sequences cloned into pCDNA3. To enhance the Emax in the IP assay, a plasmid encoding full-length human Gαq subunit[66] was co-transfected into HEK293 cells with plasmids encoding orexin receptor constructs using Lipofectamine 3000 (Thermo Fisher). 24 h after transfection, the cells were plated on poly-D-lysine coated (Millipore Sigma) tissue culture-treated 96 well white plates with clear bottoms (Perkin Elmer) at 30,000 cells per well in Inositol-free DMEM (MP Biomedicals) supplemented with 5% fetal bovine serum, 4 mM L-glutamine (Millipore Sigma), penicillin-streptomycin, and about 5 uCi (5 ul) per ml myo-[2-3H] inositol (Perkin Elmer). The following day, the media was replaced with agonists that were diluted in HBSS (Millipore Sigma) containing 10 mM lithium chloride (Millipore Sigma) and incubated at 37 °C for 45 min. Then agonists were removed and cells were lysed on ice for 30 min with 10 mM formic acid (Millipore Sigma). 1.25 mg of poly-lysine coated YSI SPA beads (Perkin Elmer) was added to each well. The plates were mixed on an orbital shaker for 30 min. The plates were read on a MicroBeta scintillation counter (Perkin Elmer) the following day. IP accumulation assays on different constructs were performed in n ≥ 3 independent experiments (each done in duplicate), where n is shown in Supplementary Table 2.

OX2R1-406 = biological target: T2, OX2R1-406 (Homo sapiens, UniProt O43614); assay: IP accumulation assay, C-terminally truncated OX2R1-406; details: for % IP accumulation: OX2R C25 short; for Emax: relative to OX2R WT with the same ligand;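 on % IP accumulation: 100% is the full-length wild-type OX2R maximal IP response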
T2 construct: the receptor construct contained residues 1–406 of wild-type human OX2R; expressed in transfected cells; host or cells: HEK293
T2 sequence (O43614 1-406): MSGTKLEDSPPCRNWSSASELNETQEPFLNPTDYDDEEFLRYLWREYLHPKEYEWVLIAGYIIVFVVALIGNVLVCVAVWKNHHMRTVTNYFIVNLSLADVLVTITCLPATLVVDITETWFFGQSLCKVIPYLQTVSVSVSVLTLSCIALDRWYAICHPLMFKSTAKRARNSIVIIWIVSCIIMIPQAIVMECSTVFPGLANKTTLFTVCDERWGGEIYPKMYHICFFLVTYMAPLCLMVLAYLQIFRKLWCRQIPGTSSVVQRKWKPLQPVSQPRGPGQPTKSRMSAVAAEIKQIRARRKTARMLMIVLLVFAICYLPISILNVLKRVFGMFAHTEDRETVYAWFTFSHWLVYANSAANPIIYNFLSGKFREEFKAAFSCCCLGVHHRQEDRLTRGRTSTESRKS
Method: The cloning, expression, purification, cryo-EM data collection, and structure determination for the two OX2R-G protein complexes described in this paper were carried out independently. For the OX2R-mGsqiN complex the receptor construct contained residues 1–406 of wild-type human OX2R (OX2R^1–406). […] The resulting construct was cloned into a modified pFastBac (ThermoFisher) baculovirus expression vector with the HA signal sequence followed by a FLAG tag at the N-terminus. We were unable to isolate a stable complex between OX2R and full-length wild-type Gαq using the co-expression and purification strategy described below. Instead, an engineered Gαq construct called mGαsqiN was made by modifying the chimeric Gα protein ‘mini-Gs/q71’ previously described. Briefly, the linker […] was deleted and residues 1–27 at the N terminus was replaced by residues 1–30 of Gαi1. A second pFastBac baculovirus was made with this mini-GαqiN gene. An additional pFastBac-Dual baculovirus was made with human Gβ1 and human […] genes. An 8xHis tag was placed at the N-terminus of […]. […] After 48 h, cells were harvested and stored at −80 °C.
as §1

human OX2R = biological target: T3, human OX2R (Homo sapiens, UniProt O43614); assay: Inhibition of forskolin-stimulated cAMP production (Gi signaling), OX2R + Gαi1; details: for stimulation of Gi1 as reduction in cAMP levels after forskolin treatment: HEK293 cells transfected with OX2R and Gαi1; for % Forskolin stimulation: OX2R + Gi
T3 construct: expressed in transfected cells; host or cells: HEK293
T3 sequence (O43614 1-444): T1 sequence (O43614 1-444 N324A) with A324N
Method: To measure Gi signaling[67], HEK293 cells were transfected with pGloSensor™−22F cAMP Plasmid (Promega) and CMV expression plasmid encoding human OX2R. To enhance the signal for the cAMP assay, we co-transfected a Gi expression plasmid (CMV-driven) in which the full-length human Gαi1 subunit sequence was cloned into pcDNA3. The following day, cells were harvested and washed with assay buffer, HBSS with 20 mM HEPES pH 7.4 (Millipore Sigma). Cells were suspended in assay buffer containing 0.5 mg/ml Luciferin (Gold Biotechnology) and plated on 96 well tissue culture-treated white plates with opaque bottoms (Thermo Fisher). The cells were incubated at 37 °C for 90 min. Forskolin (Millipore Sigma) diluted in assay buffer was added to wells for a final concentration of 5 mM. Luminescence was read at room temperature repeatedly in a CLARIOstar microplate reader (BMG Labtech) until the signal stopped increasing. Agonist diluted in assay buffer was added from a 7X stock and again the plates were read repeatedly until the signal was stable.

[1] = OXB conc (log, M) -6.95, listed as OXB
[2] = OXB conc (log, M) -7.43, listed as OXB
[3] = OXB conc (log, M) -7.91, listed as OXB
[4] = OXB conc (log, M) -8.39, listed as OXB
[5] = OXB conc (log, M) -9.82, listed as OXB
[6] = OXB conc (log, M) -10.29, listed as OXB

Molecule: COC(=O)N1CCC[C@H](NS(C)(=O)=O)[C@@H]1CO[C@H]1CC[C@@H](c2ccccc2)CC1 [TAK-925, methyl (2R,3S)−3-[(methylsulfonyl)amino]−2-{[(cis−4-phenylcyclohexyl)oxy]methyl}piperidine-1-carboxylate]
- EC50 (OX2R N324A; IP accumulation): 0.018 µM
- % IP accumulation (OX2R N324A; TAK-925 conc (log, M) -4.52): 38.90% and 50.17% and 61.68%
- % IP accumulation (OX2R N324A; TAK-925 conc (log, M) -5.00): 44.83% and 48.29% and 62.09%
- % IP accumulation (OX2R N324A; TAK-925 conc (log, M) -5.48): 54.68% and 49.83% and 60.54%
- % IP accumulation (OX2R N324A; TAK-925 conc (log, M) -5.95): 62.62% and 51.37% and 66.38%
- % IP accumulation (OX2R N324A; TAK-925 conc (log, M) -6.43): 60.89% and 49.04% and 58.43%
- % IP accumulation (OX2R N324A; TAK-925 conc (log, M) -6.91): 55.51% and 43.02% and 53.52%
- % IP accumulation (OX2R N324A; TAK-925 conc (log, M) -7.39): 29.79% and 34.77% and 41.19%
- % IP accumulation (OX2R N324A; TAK-925 conc (log, M) -7.86): 20.98% and 26.21% and 25.22%
- % IP accumulation (OX2R N324A; TAK-925 conc (log, M) -8.34): 10.23% and 11.60% and 16.93%
- % IP accumulation (OX2R N324A; TAK-925 conc (log, M) -8.82): 0.00% and 5.30%
- % IP accumulation (OX2R N324A; TAK-925 conc (log, M) -9.29): 0.24% and 0.00% and 4.28%
- Emax (OX2R N324A; relative to OX2R WT/TAK-925): 55
- EC50 (OX2R1-406; IP accumulation): 0.0054 µM
- % IP accumulation (OX2R1-406; TAK-925 conc (log, M) -7.39): 102.09% and 80.64% and 87.71% and 69.65% and 70.45% and 93.38%
- % IP accumulation (OX2R1-406; TAK-925 conc (log, M) -7.86): 87.29% and 59.28% and 70.66% and 54.93% and 62.49% and 77.19%
- Emax (OX2R1-406): 100
- stimulation of Gi1 as reduction in cAMP levels after forskolin treatment (human OX2R): poor ability to stimulate Gi1; also recorded: minimal diminution of cAMP signal
- % Forskolin stimulation (human OX2R; log [Agonist] -5.00): 72.69% and 86.21% and 88.94%
- % Forskolin stimulation (human OX2R; log [Agonist] -5.52): 88.35% and 93.40% and 97.54%
- % Forskolin stimulation (human OX2R; log [Agonist] -6.00): 94.60% and 96.68% and 103.97%
- % Forskolin stimulation (human OX2R; log [Agonist] -6.52): 100.56% and 102.28% and 109.64%
- % Forskolin stimulation (human OX2R; log [Agonist] -7.00): 100.76% and 107.19% and 105.95%
- % Forskolin stimulation (human OX2R; log [Agonist] -7.52): 105.87% and 108.11% and 120.96%
- % Forskolin stimulation (human OX2R; log [Agonist] -8.00): 107.95% and 108.44% and 107.03%
- % Forskolin stimulation (human OX2R; log [Agonist] -8.52): 103.47% and 109.30% and 118.87%

Molecule: orexin B
- activation of the mutant receptor (OX2R N324A; Gq signaling, IP accumulation): fails to activate
- % IP accumulation (OX2R N324A; [1]): 32.75% and 37.01% and 40.09%
- % IP accumulation (OX2R N324A; [2]): 25.51% and 22.88% and 29.36%
- % IP accumulation (OX2R N324A; [3]): 19.13% and 21.90% and 18.40%
- % IP accumulation (OX2R N324A; [4]): 9.56% and 13.73% and 13.07%
- % IP accumulation (OX2R N324A; OXB conc (log, M) -8.86, listed as OXB): 3.38% and 9.31% and 7.17%
- % IP accumulation (OX2R N324A; OXB conc (log, M) -9.34, listed as OXB): 7.35% and 10.16% and 5.28%
- % IP accumulation (OX2R N324A; [5]): 3.06% and 4.95% and 0.00%
- % IP accumulation (OX2R N324A; [6]): 0.00% and 2.10%
- % IP accumulation (OX2R1-406; [1]): 116.05% and 97.72% and 102.67% and 64.00% and 80.15% and 76.35% and 110.96%
- % IP accumulation (OX2R1-406; [2]): 91.34% and 86.13% and 87.29% and 57.27% and 82.96% and 71.01% and 111.84%
- % IP accumulation (OX2R1-406; [3]): 79.86% and 83.63% and 74.72% and 64.39% and 71.59% and 62.47% and 94.62%
- % IP accumulation (OX2R1-406; [4]): 46.18% and 59.23% and 44.98% and 53.61% and 63.91% and 47.69% and 72.05%
- % IP accumulation (OX2R1-406; [5]): 4.24% and 6.17% and 0.00% and 5.40% and 1.80% and 6.02% and 6.79%
- % IP accumulation (OX2R1-406; [6]): 0.00% and 3.23%
- Emax (OX2R1-406): 100
- stimulation of Gi1 as reduction in cAMP levels after forskolin treatment (human OX2R): poor ability to stimulate Gi1; also recorded: minimal diminution of cAMP signal
- % Forskolin stimulation (human OX2R; log [Agonist] -5.00, listed as OXB): 62.35% and 75.49% and 85.20%
- % Forskolin stimulation (human OX2R; log [Agonist] -5.52, listed as OXB): 65.51% and 74.64% and 79.34%
- % Forskolin stimulation (human OX2R; log [Agonist] -6.00, listed as OXB): 67.69% and 72.61% and 81.55%
- % Forskolin stimulation (human OX2R; log [Agonist] -6.52, listed as OXB): 83.40% and 83.94% and 91.79%
- % Forskolin stimulation (human OX2R; log [Agonist] -7.00, listed as OXB): 104.15% and 101.20% and 102.30%
- % Forskolin stimulation (human OX2R; log [Agonist] -7.52, listed as OXB): 105.47% and 101.46% and 103.50%
- % Forskolin stimulation (human OX2R; log [Agonist] -8.00, listed as OXB): 105.90% and 100.54% and 102.29%
- % Forskolin stimulation (human OX2R; log [Agonist] -8.52, listed as OXB): 101.42% and 105.57% and 98.48%
